According to publication PMC7899551, “Phase 1 study of Z-endoxifen in patients with advanced gynecologic, desmoid, and hormone receptor-positive solid tumors” (Oncotarget, 2021):

Legend:
ERα = target: T1, ERα (Homo sapiens, UniProt P03372); experiment: 18F-FES PET/CT imaging (blocking estrogen receptor binding); type: in vivo; details: after 1–5 days of oral treatment
T1 construct: from tissue; host or cells: patients' tumors in vivo, e.g. a pre-sacral soft tissue lesion of serous ovarian cancer
T1 sequence (P03372 1-595): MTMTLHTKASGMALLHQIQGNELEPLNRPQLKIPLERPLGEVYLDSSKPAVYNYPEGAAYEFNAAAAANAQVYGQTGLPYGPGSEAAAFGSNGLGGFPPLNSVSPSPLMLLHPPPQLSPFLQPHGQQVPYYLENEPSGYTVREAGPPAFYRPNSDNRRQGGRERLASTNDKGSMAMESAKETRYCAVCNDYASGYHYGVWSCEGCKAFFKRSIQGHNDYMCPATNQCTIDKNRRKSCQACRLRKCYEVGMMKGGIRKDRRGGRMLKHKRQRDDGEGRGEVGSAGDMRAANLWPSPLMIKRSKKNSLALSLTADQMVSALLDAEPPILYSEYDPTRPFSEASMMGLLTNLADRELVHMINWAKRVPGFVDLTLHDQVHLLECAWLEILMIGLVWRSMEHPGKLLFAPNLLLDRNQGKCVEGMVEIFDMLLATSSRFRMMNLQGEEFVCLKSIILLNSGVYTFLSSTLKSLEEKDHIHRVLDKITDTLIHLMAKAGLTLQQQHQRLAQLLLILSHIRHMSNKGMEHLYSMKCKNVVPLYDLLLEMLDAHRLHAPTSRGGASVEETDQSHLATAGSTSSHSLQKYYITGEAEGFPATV
Experimental: The pharmacodynamic effect of Z-endoxifen, blocking estrogen receptor binding, was assessed by ^18F-FES PET/CT imaging. […] Twenty patients in this trial agreed to be screened by ^18F-FES PET/CT imaging to assess ER status. Ten patients who were positive prior to treatment were re-imaged from 1 to 5 days after treatment initiation. We present here images taken after 3 days of treatment from a patient with serous ovarian cancer whose imaging has not previously been reported (patient 40, DL8, Figure 2). […] This patient developed a bowel obstruction during cycle 1 attributed to their disease and chose to come off study. Other images from patients in this trial have been previously reported.
The uptake of ^18F-FES was measured using PET/CT imaging in patients enrolled in the present trial before and after 1–5 days of treatment with oral Z-endoxifen HCl as previously described. Five additional patients were scanned following the publication of the imaging approach. The images presented here are from one of these 5 patients.

[1] = Urinary excretion of Z-endoxifen over a 24-hour collection; type: in vivo, human
Experimental: A 3-mL blood sample was collected in a K2 EDTA tube on day 1 of cycle 1 before drug administration and at the following times post-first dose: 0.5, 1, 2, 3, 4, 6, 8, and 24 hours. Samples were collected at the same time points on day 28 of cycle 1 for DL1-6 until a protocol amendment eliminated the requirement for these samples at the higher dose levels. Samples were wrapped in aluminum foil after collection to protect from light exposure. A 10-mL aliquot of urine was collected before agent administration on cycle 1 day 1, for 24 hours after dosing on day 1, and before drug administration on cycle 2 day 1; samples were refrigerated prior to analysis.
Plasma and urine concentrations of Z- and E-endoxifen were measured using a validated, post-column fluorescence derivatization HPLC assay. Non-compartmental pharmacokinetic parameters were calculated using WinNonlin version 7.0 (Pharsight Corp., Mountainview, CA, USA). A 2 μM Cmax target was established for day 28 plasma concentration. The amount of Z-endoxifen excreted in urine was measured over a 24-hour collection period.

[2] = Safety: adverse events (CTCAE v4.0), DLT, MTD; type: in vivo
Experimental: This was an open-label trial of Z-endoxifen in patients with advanced solid tumors (https://clinicaltrials.gov/ identifier: NCT01273168). Z-endoxifen-HCl was supplied by the Pharmaceutical Management Branch, National Cancer Institute, as 20 and 40 mg capsules; agent was administered orally once daily on a continuous schedule in 28-day cycles with a starting dose of 20 mg/day taken either 1 hour before or 2 hours after meals. Dose escalation followed a traditional 3+3 design in which patients were dose-escalated to the next dose level (DL) in cohorts of 3 patients until dose-limiting toxicity (DLT) was observed. […] Eight dose levels (DL1-8) were examined: 20, 40, 60, 100, 140, 200, 280, and 360 mg, respectively. Two patients at DL8 received the free base form of Z-endoxifen on day 1 rather than the hydrochloride salt to assess the pharmacokinetics of that formulation.
Toxicities were graded using Common Terminology Criteria for Adverse Events (CTCAE) version 4.0. Toxicities were required to resolve to grade 2 or below prior to initiation of the next cycle. Occurrence of a DLT was to result in a dose reduction following resolution to grade ≤ 2. No more than 2 dose reductions were allowed per patient on study. The MTD was defined as the highest dose level at which no more than 1 in 6 patients experienced a DLT.

SMILES: CC/C(=C(\c1ccc(O)cc1)c1ccc(OCCNC)cc1)c1ccccc1 [Z-endoxifen]
- 18F-FES tracer uptake on PET/CT (ERα): FES tracer uptake could be reduced
- amount excreted in the urine [1]: < 0.26 % of dose
- Anemia, grade 2 ([2]; DL2 40 mg, n = 6): 1 patients
- Elevated ALT, grade 2 ([2]; DL2 40 mg, n = 6): 1 patients
- Fatigue, grade 2 ([2]; DL2 40 mg, n = 6): 1 patients
- Lymphopenia, grade 2 ([2]; DL2 40 mg, n = 6): 3 patients
- Mucositis (oral), grade 2 ([2]; DL2 40 mg, n = 6): 1 patients
- Thromboembolic event, grade 2 ([2]; DL2 40 mg, n = 6): 1 patients
- Thromboembolic event, grade 4 ([2]; DL2 40 mg, n = 6): 1 patients
- Vestibular disorder, grade 2 ([2]; DL2 40 mg, n = 6): 1 patients
- DLT ([2]; DL2 (40 mg/day), patient 4): grade 4 pulmonary embolism
- Anemia, grade 2 ([2]; DL3 60 mg, n = 3): 1 patients
- Leukopenia, grade 2 ([2]; DL3 60 mg, n = 3): 1 patients
- Neutropenia, grade 2 ([2]; DL3 60 mg, n = 3): 1 patients
- Anemia, grade 2 ([2]; DL4 100 mg, n = 3): 1 patients
- Lymphopenia, grade 2 ([2]; DL4 100 mg, n = 3): 1 patients
- Fatigue, grade 2 ([2]; DL5 140 mg, n = 3): 1 patients
- Leukopenia, grade 2 ([2]; DL5 140 mg, n = 3): 1 patients
- Neutropenia, grade 2 ([2]; DL5 140 mg, n = 3): 1 patients
- Reflux, grade 2 ([2]; DL5 140 mg, n = 3): 1 patients
- Fatigue, grade 2 ([2]; DL6 200 mg, n = 3): 1 patients
- Hypertension, grade 2 ([2]; DL6 200 mg, n = 3): 1 patients
- Abdominal pain, grade 3 ([2]; DL7 280 mg, n = 7): 1 patients
- Anemia, grade 2 ([2]; DL7 280 mg, n = 7): 2 patients
- Diarrhea, grade 3 ([2]; DL7 280 mg, n = 7): 1 patients
- Elevated ALT, grade 2 ([2]; DL7 280 mg, n = 7): 1 patients
- Elevated ALT, grade 3 ([2]; DL7 280 mg, n = 7): 1 patients
- Elevated AST, grade 2 ([2]; DL7 280 mg, n = 7): 1 patients
- Fatigue, grade 2 ([2]; DL7 280 mg, n = 7): 1 patients
- Hypophosphatemia, grade 2 ([2]; DL7 280 mg, n = 7): 1 patients
- Hypophosphatemia, grade 4 ([2]; DL7 280 mg, n = 7): 1 patients
- Lymphopenia, grade 2 ([2]; DL7 280 mg, n = 7): 1 patients
- DLT ([2]; DL7 (280 mg/day), patient 22): grade 3 ALT elevation
- Anemia, grade 2 ([2]; DL8 360 mg, n = 12): 4 patients
- Anemia, grade 3 ([2]; DL8 360 mg, n = 12): 1 patients
- Colonic perforation, grade 4 ([2]; DL8 360 mg, n = 12): 1 patients
- Constipation, grade 2 ([2]; DL8 360 mg, n = 12): 1 patients
- Dehydration, grade 3 ([2]; DL8 360 mg, n = 12): 1 patients
- Dyspepsia, grade 2 ([2]; DL8 360 mg, n = 12): 1 patients
- Elevated ALT, grade 2 ([2]; DL8 360 mg, n = 12): 2 patients
- Elevated ALT, grade 3 ([2]; DL8 360 mg, n = 12): 1 patients
- Elevated AST, grade 2 ([2]; DL8 360 mg, n = 12): 1 patients
- Fatigue, grade 2 ([2]; DL8 360 mg, n = 12): 1 patients
- Hyponatremia, grade 3 ([2]; DL8 360 mg, n = 12): 1 patients
- Hypophosphatemia, grade 2 ([2]; DL8 360 mg, n = 12): 2 patients
- Hypophosphatemia, grade 3 ([2]; DL8 360 mg, n = 12): 2 patients
- Leukopenia, grade 2 ([2]; DL8 360 mg, n = 12): 1 patients
- Lymphopenia, grade 2 ([2]; DL8 360 mg, n = 12): 5 patients
- Lymphopenia, grade 3 ([2]; DL8 360 mg, n = 12): 1 patients
- Nausea, grade 2 ([2]; DL8 360 mg, n = 12): 1 patients
- Rash, grade 2 ([2]; DL8 360 mg, n = 12): 1 patients
- Stroke, grade 2 ([2]; DL8 360 mg, n = 12): 1 patients
- Thromboembolic event, grade 2 ([2]; DL8 360 mg, n = 12): 1 patients
- adverse event at end of cycle 1, disease most likely cause ([2]; DL8 (360 mg), patient with fallopian tube carcinoma): grade 4 colonic perforation
- grade 4 adverse events potentially related to the study agent ([2]; all dose levels): Three grade 4 adverse events
- anemia, grade ≥ 2 (grades 2 and 3), study-related ([2]; of 40 patients enrolled): 10 patients
- lymphopenia, grade ≥ 2 (grades 2 and 3), study-related ([2]; of 40 patients enrolled): 11 patients
- tolerability ([2]; oral daily, 20-360 mg/day): generally well tolerated
- maximum tolerated dose ([2]; oral daily, up to 360 mg/day): No maximum tolerated dose was established
